This note sets out measurements from PubChem BioAssay AID1259407 (Chemical Carcinogenesis Research Information System (CCRIS), 2018).

This data set relates to CCRIS mutagenicity, Ames/micronucleus/aberration tests. Description: CCRIS mutagenicity studies.

The source made the active and inactive calls. The rule behind the calls is not given here.

With `N#[N+]c1cnc([O-])[nH]c1=O`, the mutagenic call by setting is: (Test System: AMES SALMONELLA TYPHIMURIUM, Strain/Indicator: TA98, Metabolic Activation: NONE, Method: PREINCUBATION) “active; positive”; (Test System: AMES SALMONELLA TYPHIMURIUM, Strain/Indicator: TA98, Metabolic Activation: RAT, LIVER, S-9, AROCLOR 1254, Method: PREINCUBATION) “active; positive”; (Test System: AMES SALMONELLA TYPHIMURIUM, Strain/Indicator: TA100, Metabolic Activation: NONE, Method: PREINCUBATION) “active; positive”; (Test System: AMES SALMONELLA TYPHIMURIUM, Strain/Indicator: TA100, Metabolic Activation: RAT, LIVER, S-9, AROCLOR 1254, Method: PREINCUBATION) “active; positive”.
As to `c1ccc2c(c1)-c1c(c3ccccc3c3ccccc13)C1NC21` (centres undefined), the mutagenic call runs as follows: (Test System: AMES SALMONELLA TYPHIMURIUM, Strain/Indicator: TA98, Metabolic Activation: NONE, Method: PREINCUBATION (KCL-CONTAINING MEDIUM)) “active; positive”; (Test System: AMES SALMONELLA TYPHIMURIUM, Strain/Indicator: TA98, Metabolic Activation: NONE, Method: PREINCUBATION (KCL-FREE MEDIUM)) “active; positive”; (Test System: AMES SALMONELLA TYPHIMURIUM, Strain/Indicator: TA100, Metabolic Activation: NONE, Method: PREINCUBATION (KCL-CONTAINING OR KCL-FREE MEDIA)) “active; positive”.
As for `COc1ccc([C@@H]2CC(=O)c3c(O)cc(O[C@@H]4O[C@H](CO[C@@H]5O[C@@H](C)[C@H](O)[C@@H](O)[C@H]5O)[C@@H](O)[C@H](O)[C@H]4O)cc3O2)cc1O`, the mutagenic call (Test System: AMES SALMONELLA TYPHIMURIUM, Strain/Indicator: TA98, Metabolic Activation: NONE, Method: STANDARD PLATE) was “inactive; negative”; the mutagenic call (Test System: AMES SALMONELLA TYPHIMURIUM, Strain/Indicator: TA98, Metabolic Activation: RAT, LIVER, S-9, AROCLOR 1254, Method: STANDARD PLATE) was “inactive; negative”; the mutagenic call (Test System: AMES SALMONELLA TYPHIMURIUM, Strain/Indicator: TA100, Metabolic Activation: NONE, Method: STANDARD PLATE) was “inactive; negative”; the mutagenic call (Test System: AMES SALMONELLA TYPHIMURIUM, Strain/Indicator: TA100, Metabolic Activation: RAT, LIVER, S-9, AROCLOR 1254, Method: STANDARD PLATE) is “inactive; negative”; the mutagenic call (Test System: AMES SALMONELLA TYPHIMURIUM, Strain/Indicator: TA1535, Metabolic Activation: NONE, Method: STANDARD PLATE) is “inactive; negative”; the mutagenic call (Test System: AMES SALMONELLA TYPHIMURIUM, Strain/Indicator: TA1535, Metabolic Activation: RAT, LIVER, S-9, AROCLOR 1254, Method: STANDARD PLATE) was “inactive; negative”. Moreover, the mutagenic call by setting is: (Test System: AMES SALMONELLA TYPHIMURIUM, Strain/Indicator: TA1537, Metabolic Activation: NONE, Method: STANDARD PLATE) “inactive; negative”; (Test System: AMES SALMONELLA TYPHIMURIUM, Strain/Indicator: TA1537, Metabolic Activation: RAT, LIVER, S-9, AROCLOR 1254, Method: STANDARD PLATE) “inactive; negative”; (Test System: AMES SALMONELLA TYPHIMURIUM, Strain/Indicator: TA1538, Metabolic Activation: NONE, Method: STANDARD PLATE) “inactive; negative”; (Test System: AMES SALMONELLA TYPHIMURIUM, Strain/Indicator: TA1538, Metabolic Activation: RAT, LIVER, S-9, AROCLOR 1254, Method: STANDARD PLATE) “inactive; negative”; (Test System: E. COLI, Strain/Indicator: WP2, Metabolic Activation: NONE, Method: STANDARD PLATE) “inactive; negative”; (Test System: E. COLI, Strain/Indicator: WP2, Metabolic Activation: RAT, LIVER, S-9, AROCLOR 1254, Method: STANDARD PLATE) “inactive; negative”.
